{"source": "patent US5223413A", "about": "“Process for the preparation of vancomycin” (Biochin Biotechnologial Leanyvallalat, priority 1989, dated 1993)", "test_system": "ATCC 6633 Bacillus subtilis strain", "experiment": "agar diffusion determination of antibiotic content / biological potency (USP XXII)", "assay_type": "cell-based", "conditions": "final product of Example 5, related to USP reference standard", "protocol": "The quantitative determination of the antibiotic content of the fermentation broth and final product was performed by using the agar diffusion method according to the prescriptions of USP XXII. on the ATCC 6633 Bacillus subtilis strain. The vancomycin potency values were related to the commercially available USP reference standard.", "note": "Structures can show the parent of a compound that is named as a salt.", "data": [{"smiles": "CN[C@H](CC(C)C)C(=O)N[C@H]1C(=O)N[C@@H](CC(N)=O)C(=O)N[C@H]2C(=O)N[C@H]3C(=O)N[C@H](C(=O)N[C@H](C(=O)O)c4cc(O)cc(O)c4-c4cc3ccc4O)[C@H](O)c3ccc(c(Cl)c3)Oc3cc2cc(c3O[C@@H]2O[C@H](CO)[C@@H](O)[C@H](O)[C@H]2O[C@H]2C[C@](C)(N)[C@H](O)[C@H](C)O2)Oc2ccc(cc2Cl)[C@H]1O", "note": "[vancomycin hydrochloride]", "values": [{"measurement": "biological potency based on microbiological determination", "value": "higher than 968 μg/mg"}]}]}
